Source: article PMC7611903, “DYW domain structures imply an unusual regulation principle in plant organellar RNA editing catalysis” (Nature catalysis, 2021)
Residue numbers refer to the chain shown, from its start.

Experiments:
OTP86^DYW [1] = biological target: T1, OTP86^DYW (Arabidopsis thaliana, UniProt Q9M1V3); assay: differential scanning fluorimetry (SYPRO orange); format: binding; conditions: 20 mM Tris pH 7.5, 150 mM NaCl, destabilizing
T1 construct: gene PCMP-H83; isolated DYW domain, residues 826-960; N-terminal Strep-tag cut by TEV, GAM left; E. coli Rosetta2 (DE3); about 15 kDa, monomer
T1 sequence (Q9M1V3 826-960): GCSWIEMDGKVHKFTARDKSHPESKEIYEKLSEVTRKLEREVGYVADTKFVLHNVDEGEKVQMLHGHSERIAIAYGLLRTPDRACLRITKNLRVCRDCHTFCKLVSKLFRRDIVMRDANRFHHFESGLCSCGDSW

PPR56 = biological target: T2, PPR56 (Physcomitrium patens, UniProt A0A2K1IWP1); assay: in vitro C-to-U RNA editing, RT-PCR sequencing; format: biochemical; conditions: nad4 RNA substrate, pH 7.5, 16 °C, activator
T2 construct: gene LOC112295756; recombinant from pETG41K::PPR56 (His-MBP fusion), amylose-purified from E. coli; tag kept; PPR tract, E1, E2 and DYW domain
T2 sequence (A0A2K1IWP1 entry or part of it): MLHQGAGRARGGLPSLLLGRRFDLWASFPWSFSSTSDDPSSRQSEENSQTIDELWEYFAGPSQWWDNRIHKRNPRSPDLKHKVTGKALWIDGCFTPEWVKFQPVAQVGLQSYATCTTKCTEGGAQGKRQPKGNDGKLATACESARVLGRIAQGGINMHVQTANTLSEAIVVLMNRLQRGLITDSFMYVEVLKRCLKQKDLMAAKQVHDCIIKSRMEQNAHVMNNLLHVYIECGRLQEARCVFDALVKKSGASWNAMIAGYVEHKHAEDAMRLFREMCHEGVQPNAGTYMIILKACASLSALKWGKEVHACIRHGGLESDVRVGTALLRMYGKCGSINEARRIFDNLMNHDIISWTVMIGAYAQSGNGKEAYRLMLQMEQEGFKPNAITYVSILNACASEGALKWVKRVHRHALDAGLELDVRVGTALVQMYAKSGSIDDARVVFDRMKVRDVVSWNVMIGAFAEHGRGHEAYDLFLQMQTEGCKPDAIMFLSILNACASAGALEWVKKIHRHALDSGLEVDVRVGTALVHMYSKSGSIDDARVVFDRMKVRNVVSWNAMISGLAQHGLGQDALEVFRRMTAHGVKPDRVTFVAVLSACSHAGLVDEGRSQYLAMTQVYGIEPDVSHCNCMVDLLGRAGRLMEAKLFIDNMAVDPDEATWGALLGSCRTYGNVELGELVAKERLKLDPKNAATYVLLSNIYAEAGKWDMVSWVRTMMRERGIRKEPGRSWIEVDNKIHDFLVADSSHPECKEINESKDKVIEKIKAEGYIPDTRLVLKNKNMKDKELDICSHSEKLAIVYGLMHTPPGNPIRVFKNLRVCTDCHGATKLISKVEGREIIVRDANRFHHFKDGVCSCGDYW

OTP86^DYW [2] = biological target: T3, OTP86^DYW (Arabidopsis thaliana, UniProt Q9M1V3, H892C); assay: differential scanning fluorimetry (SYPRO orange); format: binding; conditions: 20 mM Tris pH 7.5, 150 mM NaCl; destabilizing
T3 construct: gene PCMP-H83; isolated DYW domain, residues 826-960; N-terminal Strep-tag cut by TEV, GAM left; E. coli Rosetta2 (DE3); about 15 kDa, monomer
T3 sequence (Q9M1V3 826-960 H892C): T1 sequence (Q9M1V3 826-960) with H67C

OTP86^DYW [3] = biological target: T4, OTP86^DYW (Arabidopsis thaliana, UniProt Q9M1V3, L917A); assay: differential scanning fluorimetry (SYPRO orange); format: binding; conditions: 20 mM Tris pH 7.5, 150 mM NaCl; destabilizing
T4 construct: gene PCMP-H83; isolated DYW domain, residues 826-960; N-terminal Strep-tag cut by TEV, GAM left; E. coli Rosetta2 (DE3); about 15 kDa, monomer
T4 sequence (Q9M1V3 826-960 L917A): T1 sequence (Q9M1V3 826-960) with L92A

OTP86^DYW [4] = biological target: T5, OTP86^DYW (Arabidopsis thaliana, UniProt Q9M1V3, K915A); assay: differential scanning fluorimetry (SYPRO orange); format: binding; conditions: 20 mM Tris pH 7.5, 150 mM NaCl; destabilizing
T5 construct: gene PCMP-H83; isolated DYW domain, residues 826-960; N-terminal Strep-tag cut by TEV, GAM left; E. coli Rosetta2 (DE3); about 15 kDa, monomer
T5 sequence (Q9M1V3 826-960 K915A): T1 sequence (Q9M1V3 826-960) with K90A

Row | SMILES | in vitro C-to-U RNA editing, RT-PCR sequencing (PPR56) | Tm (OTP86^DYW [2]) | Tm (OTP86^DYW [3]) | other results
1 | Nc1nc2c(ncn2[C@@H]2O[C@H](COP(=O)(O)OP(=O)(O)OP(=O)(O)O)[C@@H](O)[C@H]2O)c(=O)[nH]1 [GTP] | GTP also activate both PPR proteins in a concentration-dependent manner | – | – | Tm (OTP86^DYW [1]; 2 mM GTP, reversible, activator): 65.3 °C
2 | Nc1ncnc2c1ncn2[C@@H]1O[C@H](COP(=O)(O)OP(=O)(O)CP(=O)(O)O)[C@@H](O)[C@H]1O [AMPPCP] | – | – | – | Tm (OTP86^DYW [1]; non-hydrolysable ATP analogue): 68 °C
3 | Nc1ncnc2c1ncn2[C@@H]1O[C@H](COP(=O)(O)OP(=O)(O)OP(=O)(O)O)[C@@H](O)[C@H]1O [ATP] | – | we assessed the T m of H892C in the presence of the activators | a milder effect with ATP comparable to wild type was observed | Tm (OTP86^DYW [1]; 2 mM ATP, reversible, activator): 65 °C; in vitro C-to-U RNA editing, RT-PCR sequencing (PPR56; may be allosteric): ATP activates PPR56 and PPR56^PPRE1E2–OTP86^DYW in a concentration-dependent fashion
4 | O=C1NC(O)CCN1[C@@H]1O[C@H](CO)[C@@H](O)[C@H]1O (stereo partly drawn) [tetrahydrouridine] | THU increases deaminase activity markedly for both proteins in a concentration-dependent manner | The H892C mutant closely resembles the wild-type protein regarding activation, albeit less pronounced | The L917A mutation showed a prominent decrease in T m when THU was added | Tm (OTP86^DYW [4]): this effect is less severe with the K915A mutation; Tm (OTP86^DYW [1]; reversible, activator): 60 °C
